Where a SMILES comes first, the peptide text is derived from it. [ ]: non-standard residue; d: D form. The star is where a group is joined. 2Abz = Nc1ccccc1C(=O)O; Cbz = O=C(OCc1ccccc1)*; CH2F = FC*
How the values were obtained:
CPAF [1] = biological target: T1, CPAF (Chlamydia trachomatis serovar D, UniProt O84866); experiment: HPLC-based CPAF enzyme kinetics with model substrate; assay type: biochemical, C. trachomatis; design: 6xHis; made in house; host or cells: E. coli BL21 (DE3), plasmid pET30b-CPAF; settings: CPAF 62.5 nM, substrate 0-6 mM, 25° C.
Protocol: Proteolytic enzyme kinetics of CPAF were measured using an HPLC-based assay that quantifies the cleavage of an Abz-tagged model CPAF substrate derived from human vimentin:
Standard assays were performed in a total volume of 100 μL containing Assay Buffer (150 mM NaCl, 50 mM Tris pH 7.5), CPAF (62.5 nM), and varying concentrations (0-6 mM) of CPAF substrate (SEQ ID NO:9). Reactions were initiated by the addition of enzyme and incubated at 25° C. for 90 seconds. Incubation was followed by removal of 80 μL aliquots and quenched by the addition of 40 μL 1.2 M HCl. […] Abz-containing peptides were detected by fluorescence emission at 420 nm, and the composition and identity of each product were confirmed by mass spectrometry by LCMS. […] The percentage of substrate converted to product was calculated from the HPLC data by integrating the area under the peaks in the chromatograms using PeakFit v4.11 (available from Systat Software), followed by analysis in Grafit 6.0 (available from Erithacus Software) using the following equation: […]
Target sequence in this assay (O84866 276-601): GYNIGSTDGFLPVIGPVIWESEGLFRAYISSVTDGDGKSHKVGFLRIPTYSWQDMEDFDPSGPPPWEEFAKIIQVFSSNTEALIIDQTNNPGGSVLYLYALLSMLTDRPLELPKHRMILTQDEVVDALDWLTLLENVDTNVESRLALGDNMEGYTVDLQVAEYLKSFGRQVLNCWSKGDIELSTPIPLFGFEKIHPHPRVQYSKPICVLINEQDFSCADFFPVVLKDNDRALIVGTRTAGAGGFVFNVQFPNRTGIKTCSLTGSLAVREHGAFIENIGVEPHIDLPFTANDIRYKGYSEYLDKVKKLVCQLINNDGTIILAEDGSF
Target sequence in this assay (O84866 1-234, added parts left off): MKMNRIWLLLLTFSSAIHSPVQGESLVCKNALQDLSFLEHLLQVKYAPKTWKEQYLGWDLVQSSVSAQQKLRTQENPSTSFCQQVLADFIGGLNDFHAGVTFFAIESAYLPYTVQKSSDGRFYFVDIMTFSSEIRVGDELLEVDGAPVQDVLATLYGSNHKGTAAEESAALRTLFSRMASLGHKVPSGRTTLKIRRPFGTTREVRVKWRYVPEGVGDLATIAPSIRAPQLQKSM

[2] = test system: epithelial cells infected with C. trachomatis; experiment: Host cell death (condensed nuclei) in C. trachomatis infected cells; assay type: cell-based; settings: caspase inhibitor added before the CPAF inhibitor peptide
Protocol: FIG. 11 depicts (A) that inhibiting CPAF activity induces host cell death. The indicated peptides (anti-CPAF peptide refers to SEQ ID NO:7) were added to infected cells 12 hpi and the percentage of infected cells with condensed nuclei was quantified at the indicated times. (B-C) Inhibition of CPAF activity induces apoptosis. Infected cells were treated with peptides and the percentage of AnnexinV-FITC positive (propidium iodide (PI) negative) was determined by flow cytometry (B). In parallel samples, cleavage of Caspase-3, a hallmark of apoptosome activation, was monitored by immunoblot analysis. Actin and MOMP are host and bacterial loading controls respectively. Staurosporine (2 μM)-treatment was used as a positive control and the pan-caspase inhibitor ZVAD-FMK were used as controls. (D) Cell death is blocked by a pan-Caspase inhibitor. Infected cells were treated as in (A) in the presence or absence of ZVAD-FMK, labeled with PI and analyzed by flow cytometry. Cells pre-treated with ZVAD-FMK and the control peptide lacked PI staining.
FIG. 12 depicts (A) low-magnification view of C. trachomatis LGV-L2 infected HeLa monolayers (30 h) treated with SEQ ID NO:7 or SEQ ID NO:11 peptides. […] HeLa cells infected with C. muridarum were treated with Ac-YVAD-CMK at 2 hpi, SEQ ID NO:7 peptide or SEQ ID NO:11 control peptide at 12 hpi and the percentage of infected cells with condensed nuclei was assessed at 48 hpi (F). […] The percentage of infected cells with condensed nuclei was assessed at 48 hpi (G). […] Cell death in infected and uninfected cells treated with CPAF inhibitory peptides or control peptides was determined by counting the number of condensed nuclei of ˜1000 cells.
FIG. 13 depicts (A) that Caspase-1 inhibitors block Chlamydia-mediated cell death. […] Cells were fixed and the percentage of cells with condensed nuclei determined at 24 hpi. […] Infected cells were labeled with a cell-permeable fluorescent substrate of Caspase-1 and treated with inhibitory peptides, and Caspase-1 activity was monitored by flow cytometry. […]

CPAF [3] = biological target: T1, CPAF; assay type: biochemical, C. trachomatis; design: 6xHis; made in house; host or cells: E. coli (pET30b); settings: GST-chlamydial substrates in presence of peptides
Protocol: FIG. 4 depicts (A) Recombinant Chlamydia ORFs were tested for sensitivity to host and bacterial derived proteases. […] Purified his-tagged CPAF was incubated with GST-tagged chlamydial substrates at 37° C. for 20 min with increasing amounts of lactacystin. Cleavage products were run on an SDS PAGE gel and visualized with Coomassie blue staining. (C) Schematic summary of CPAF targets. […] Membranes from Chlamydia-infected HeLa cells were harvested and purified at 0, 24, 36 and 48 hours post-infection, and the abundance of the chlamydial proteins Ct005, IncC and IncD were monitored with specific antibodies. Na/K ATPase and IncG served as host and bacterial-loading controls, respectively.
Cytosols from Chlamydia-infected HeLa cells (40 hrs) or recombinant his-tagged CPAF were pre-treated with rabbit polyclonal anti-CPAF or anti-IncA antisera, and incubated with GST-tagged Chlamydia proteins for 20 min at 37° C. […] Three example proteins shown include a type-III secretion (T3S) core component (CdsQ) a T3S chaperone (Mcsc) and a T3S needle component (Ct584). Processing of recombinant proteins in A-B were monitored by immunoblot analysis with specific antibodies. (C) Protease inhibitor profile of recombinant CPAF. Example shown for the chlamydial substrate GST-IncC. Degradation products were visualized by SDS-PAGE followed by staining with Coomassie blue. […]
Uninfected and HeLa cells pre-infected with L2 for 30 hrs were treated with inhibitory peptides and infected with EBs for 10 min Tarp translocation was indirectly visualized with an anti-phosphotyrosine antibody (A) and quantified by counting 50 separate cells (B). The stability of newly translocated Tarp was assessed by infecting cells as in (A) but with S^35-labeled EBs, followed by sequential immunoprecipitation of Tarp and MOMP and Phosphoimager analysis of precipitated material (C (I-IV)). […] IC50 values were determined by assessing CPAF cleavage of an Abz-tagged CPAF substrate (SEQ ID NO:9) by HPLC. […] Extracellular bacteria were determined. […] The number of internalized EBs was quantified per cell (H). […]
Target sequence in this assay (O84866 1-234, added parts left off): as above
Target sequence in this assay (O84866 276-601): as the sequence (O84866 276-601) above

C. muridarum = C. muridarum growth in HeLa cells (recovered IFUs); assay type: cell-based; settings: caspase-1 inhibitor at 2 hpi
Protocol: Cells were infected with an MOI of 1 and treated with CPAF inhibitor (SEQ ID NO:7) or control (SEQ ID NO:11) peptides at 12 hpi, fixed at 24 hpi and analyzed by IF with anti-L2 polyclonal antisera. Inclusion size was determined by measuring the inclusion diameter in μm by confocal microscopy of 50 infected cells. The number of cells with fragmented inclusions was determined by counting the number of infected cells out of 50 with more than one inclusion. (C) Sequence alignment and % sequence identify of full length CPAF and predicted inhibitory peptide sequence between C. trachomatis serovar LGV-L2, Chlamydia muridarum, and Chlamydophila caviae was determined using Geneious software (available at the Geneious website). […] GPIC or C. muridarum infected whole cell protein lysate was preincubated with SEQ ID NO:7 peptide or SEQ ID NO:11 control peptide, mixed with GST-IncC at 37° C., resolved by SDS-PAGE and stained with Coomassie blue. […] Inhibition of C. muridarum (E) and C. ceviae (F) growth was determined by counting the number of recovered IFUs. […] Inclusions were detected by IF with anti-LGV-L2 (A, B, E) antisera or anti-chlamydial LPS (F) monoclonal antibodies, and host nuclei sere detected by staining.

CC(C)C[C@H](NC(=O)[C@H](CCCNC(=N)N)NC(=O)[C@@H](NC(=O)c1ccccc1N)C(C)C)C(=O)N[C@@H](CCCNC(=N)N)C(=O)N[C@@H](CO)C(=O)N[C@@H](CO)C(=O)N[C@H](C(=O)N1CCC[C@H]1C(=O)NCC(=O)N[C@H](C(N)=O)C(C)C)C(C)C [SEQ ID NO:9, Abz-V-R-L-R-S-S-V-P-G-V-NH2] (H-[2Abz]VRLRSSVPGV-NH2)
kcat of CPAF proteolysis of model substrate (CPAF [1]): 13.2 s⁻¹ | Km (CPAF [1]; read-out: KM of CPAF proteolysis of model substrate): 880 µM

COC(=O)C[C@H](NC(=O)[C@H](C)NC(=O)[C@@H](NC(=O)OCc1ccccc1)C(C)C)C(=O)CF [ZVAD-FMK] (Cbz-Val-Ala-Asp(OMe)-CH2F)
Block of death of Chlamydia-infected cells treated with SEQ ID NO:7 [2]: efficiently blocked the death

H-NFALSHFRLPLSTYKEMPYVSHWAGRRRRRRRRR-NH2 [SEQ ID NO:11, reference compound]
Inhibition of degradation of CPAF substrates in vitro (CPAF [3]): no CPAF inhibitory activity in vitro

CC(=O)N[C@@H](Cc1ccc(O)cc1)C(=O)N[C@H](C(=O)N[C@@H](C)C(=O)N[C@@H](CC(=O)O)C(=O)CCl)C(C)C [Ac-YVAD-CMK, reference compound]
Rescue of C. muridarum growth defect in cells treated with SEQ ID NO:7 (C. muridarum): does not rescue the growth defect | Block of death of Chlamydia-infected cells treated with SEQ ID NO:7 [2]: efficiently blocked the death
